# Data: the supplement of paper PMC10307832
# Key:
# Assay in all cases: relative viability (nuclei count vs DMSO), 5 days (fraction); higher = more cells survive
# Shikonin + Palbociclib = compound: CC(C)=CC[C@@H](O)C1=CC(=O)c2c(O)ccc(O)c2C1=O [Shikonin] + CC(=O)c1c(C)c2cnc(Nc3ccc(N4CCNCC4)cn3)nc2n(C2CCCC2)c1=O [Palbociclib] (partner 0.5 µM)
# Procedure, shortened: (§1)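 Lung cancer cell lines in 1536-well plates were dosed by pin tool the day after seeding, either with one drug alone or with a fixed anchor-drug dose plus five library-drug doses (not always all listed) in √10 steps. After 5 days, cells were fixed and their nuclei stained in one step (final 0.05% Triton X-100, 1% formaldehyde, 1 ug/ml Hoechst), then counted on 4× images. Relative viability is the nuclei count in treated wells divided by that in vehicle wells. Values are medians of duplicate plates.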
# Shikonin + AZD7762 = compound: CC(C)=CC[C@@H](O)C1=CC(=O)c2c(O)ccc(O)c2C1=O [Shikonin] + NC(=O)Nc1cc(-c2cccc(F)c2)sc1C(=O)N[C@H]1CCCNC1 [AZD7762] (partner 0.2 µM)
# Procedure, shortened: as §1
# Shikonin + Luminespib = compound: CC(C)=CC[C@@H](O)C1=CC(=O)c2c(O)ccc(O)c2C1=O [Shikonin] + CCNC(=O)c1noc(-c2cc(C(C)C)c(O)cc2O)c1-c1ccc(CN2CCOCC2)cc1 [Luminespib] (partner 0.01 µM)
# Procedure, shortened: as §1
# [1] = compound: CC(C)N(CCCNC(=O)Nc1ccc(C(C)(C)C)cc1)C[C@H]1O[C@@H](n2ccc3c(N)ncnc32)[C@H](O)[C@@H]1O + CC(=O)c1c(C)c2cnc(Nc3ccc(N4CCNCC4)cn3)nc2n(C2CCCC2)c1=O [Palbociclib] (partner 0.5 µM)
# Procedure, shortened: as §1
Cell Line,relative viability (Shikonin + Palbociclib; first compound 0.01 µM),relative viability (Shikonin + Palbociclib; first compound 0.1 µM),relative viability (Shikonin + Palbociclib; first compound 0.3162 µM),relative viability (Shikonin + Palbociclib; first compound 1 µM),relative viability (Shikonin + AZD7762; first compound 0.01 µM),relative viability (Shikonin + AZD7762; first compound 0.1 µM),relative viability (Shikonin + AZD7762; first compound 0.3162 µM),relative viability (Shikonin + AZD7762; first compound 1 µM),relative viability (Shikonin + Luminespib; first compound 0.01 µM),relative viability (Shikonin + Luminespib; first compound 0.1 µM),relative viability (Shikonin + Luminespib; first compound 0.3162 µM),relative viability (Shikonin + Luminespib; first compound 1 µM),relative viability ([1]; first compound 0.08 µM),relative viability ([1]; first compound 0.253 µM),relative viability ([1]; first compound 0.8 µM),relative viability ([1]; first compound 2.53 µM),relative viability ([1]; first compound 8 µM)
ChaGo-K-1,0.977,1.09,0.968,0.968,0.942,0.906,0.913,0.876,0.635,0.82,0.55,0.415,0.887,0.96,0.959,0.928,0.95
NCI-H1975,0.549,0.629,0.541,0.641,0.746,0.683,0.808,0.8,0.178,0.27,0.248,0.167,0.557,0.486,0.205,0.499,0.497
NCI-H2347,0.432,0.424,0.414,0.397,0.77,0.947,0.829,0.712,0.573,0.477,0.471,0.526,0.423,0.44,0.407,0.553,0.404
EMC-BAC-2,0.512,0.573,0.538,0.513,1.15,1.32,1.21,1.16,1.25,1.44,1.3,1.24,0.507,0.499,0.512,0.502,0.485
NCI-H3122,0.228,0.215,0.178,0.176,0.973,1.07,1.05,0.959,0.0973,0.0926,0.0903,0.0968,0.204,0.162,0.161,0.198,0.197
NCI-H358,0.139,0.132,0.131,0.131,0.425,0.62,0.607,0.603,0.467,0.369,0.246,0.334,0.121,0.127,0.143,0.135,0.132
NCI-H1944,0.311,0.403,0.321,0.349,0.454,0.558,0.763,0.561,0.704,0.613,0.889,0.8,0.322,0.302,0.348,0.329,0.353
EPLC-272H,0.373,0.321,0.336,0.282,0.194,0.265,0.241,0.176,0.167,0.303,0.209,0.261,0.365,0.342,0.366,0.36,0.398
NCI-H1915,0.535,0.521,0.525,0.645,0.695,0.752,0.728,0.729,1,0.758,0.849,0.85,0.517,0.543,0.517,0.533,0.525
NCI-H650,0.325,0.314,0.334,0.34,0.962,1.07,1.17,0.947,0.678,0.822,0.79,0.61,0.349,0.339,0.323,0.319,0.348
NCI-H441,0.225,0.219,0.225,0.231,1.39,0.935,1.16,1.43,0.349,0.339,0.371,0.323,0.203,0.186,,0.237,0.216
NCI-H23,0.597,0.543,0.623,0.573,0.223,0.27,0.268,0.231,0.226,0.196,0.227,0.143,0.517,,0.506,0.48,0.446
NCI-H2342,0.499,0.465,0.526,0.537,0.503,0.451,0.471,0.472,0.763,0.65,0.752,0.702,0.556,0.533,0.481,0.551,0.549
NCI-H2170,0.392,0.376,0.395,0.422,0.912,0.737,0.975,0.905,0.8,0.703,0.632,0.562,0.407,0.399,0.372,0.381,0.351
NCI-H2087,0.235,0.234,0.219,0.256,1.38,1.12,1.35,1.23,0.185,0.167,0.156,0.153,0.29,0.235,0.276,0.203,0.269
NCI-H1993,0.687,0.672,0.722,0.455,0.524,0.667,0.632,0.906,1.08,0.834,0.834,0.531,0.616,,0.57,0.609,0.65

Cell Line,relative viability (Shikonin + Palbociclib; first compound 0.01 µM),relative viability (Shikonin + Palbociclib; first compound 0.1 µM),relative viability (Shikonin + Palbociclib; first compound 0.3162 µM),relative viability (Shikonin + Palbociclib; first compound 1 µM),relative viability (Shikonin + AZD7762; first compound 0.01 µM),relative viability (Shikonin + AZD7762; first compound 0.1 µM),relative viability (Shikonin + AZD7762; first compound 0.3162 µM),relative viability (Shikonin + AZD7762; first compound 1 µM),relative viability (Shikonin + Luminespib; first compound 0.01 µM),relative viability (Shikonin + Luminespib; first compound 0.1 µM),relative viability (Shikonin + Luminespib; first compound 0.3162 µM),relative viability (Shikonin + Luminespib; first compound 1 µM),relative viability ([1]; first compound 0.08 µM),relative viability ([1]; first compound 0.253 µM),relative viability ([1]; first compound 0.8 µM),relative viability ([1]; first compound 2.53 µM),relative viability ([1]; first compound 8 µM)
PC-14,0.397,0.535,0.524,0.509,0.381,0.274,0.438,0.576,0.115,0.12,0.135,0.151,0.467,0.439,0.586,0.444,0.496
NCI-H460,0.166,0.227,0.2,0.222,0.739,0.874,0.597,0.658,0.0384,0.034,0.0299,0.0321,0.207,0.201,0.139,0.181,0.111
LOU-NH91,0.546,0.526,0.549,0.5,0.839,0.864,0.816,0.84,0.317,0.358,0.382,0.332,0.538,0.503,,0.53,0.611
NCI-H322M,0.479,0.446,0.477,0.489,0.59,0.568,0.451,0.572,0.942,0.855,0.82,0.847,0.481,0.488,0.494,0.489,0.532
NCI-H727,0.713,0.603,0.678,0.67,0.682,0.584,0.732,0.647,0.412,0.462,0.233,0.329,0.694,0.578,0.769,0.82,0.62
NCI-H838,0.231,0.246,0.197,0.243,0.97,1.03,0.97,1.1,0.369,0.237,0.317,0.258,0.217,0.178,0.182,0.247,0.251
NCI-H1793,0.283,0.321,0.306,0.345,0.555,0.531,0.494,0.629,0.164,0.196,0.155,0.535,0.295,,0.292,0.38,0.303
NCI-H1734,0.319,0.38,0.323,0.308,0.557,0.552,0.595,0.55,0.173,0.199,0.216,0.131,0.328,0.385,0.353,0.192,0.365
LXF-289,0.594,0.707,0.618,0.622,1.13,1.15,1.14,1.18,0.721,0.625,0.604,0.814,0.705,0.591,0.6,0.656,0.652
H3255,0.316,0.333,0.337,0.303,0.909,0.977,0.943,0.911,0.869,0.973,1.05,0.865,0.328,0.33,0.308,0.299,0.316
201T,0.346,0.413,0.331,0.387,0.638,0.657,0.625,0.603,0.971,1.13,1.03,1.07,0.338,0.352,,0.328,0.357
HOP-62,0.471,0.581,0.559,0.447,0.949,0.648,0.584,0.646,0.975,0.763,0.96,0.914,0.46,0.37,0.356,0.361,0.371
CAL-12T,0.414,0.451,0.403,0.438,0.606,0.751,0.622,0.736,0.473,0.415,0.257,0.42,0.418,0.341,0.488,0.445,0.38
NCI-H647,0.487,0.325,0.38,0.361,0.646,0.406,0.429,0.529,0.169,0.142,0.147,0.159,0.35,0.396,0.3,0.406,0.421
NCI-H1755,0.463,0.443,0.432,0.482,0.384,0.422,0.373,0.427,0.428,0.439,0.576,0.378,0.437,0.435,0.45,0.484,0.498
NCI-H2085,0.468,0.509,0.447,0.479,1.02,1.06,0.957,1.05,0.443,0.471,0.336,0.379,0.47,0.48,0.524,0.547,0.481
